The results in this text go back to patent publication US20240317721A1, “PYRAZOLYL DERIVATIVES AS INHIBITORS OF THE KRAS MUTANT PROTEIN” (NOVARTIS AG, priority 2021, published 2024).

Each structure is given as a SMILES string.

The assay addresses KRasG12C (M1-K169, biotinylated on the N-terminus) (Homo sapiens (Human), UniProt P01116, G12C). As to the kind of experiment: Covalent competition assay: scintillation proximity assay (SPA) quantifying covalent modification of KRASG12C. Format: binding. The settings on record: competition with radiolabeled covalent probe (Compound B/Compound A), 2 hours incubation, 10 nM KRasG12C. In short, it runs like this: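 Test compounds compete with a radiolabeled covalent probe for modification of N-terminally biotinylated KRasG12C(M1-K169):GDP, final 10 nM protein, 25 nM radio-ligand, 475 nM unlabelled ligand, 2 h with agitation in 20 mM Tris-HCl pH 7.5, 150 mM NaCl, 0.1 mM MgCl2, 0.01% Tween-20.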
(In general: SPA uses beads or plates that emit light when radiolabelled molecules are held near them.)
For `C=CC(=O)N1CC2(CC(n3nc(N4CC[C@@H](CN5CCN(S(C)(=O)=O)CC5)CC4(C)C)c(-c4c(Cl)c(Cl)cc5[nH]ncc45)c3C)C2)C1` (single isomer, unassigned) [Example 298a], the IC50 – broadly, the concentration at which inhibition is half-maximal – is 1 µM.

With `C=CC(=O)N1CC2(CC(n3nc(N4CCN(C5CCOCC5)C[C@@]4(C)C(F)F)c(-c4c(Cl)c(C)cc5[nH]ncc45)c3C)C2)C1` (single isomer, unassigned) [Example 146a], the half-inhibitory concentration (IC50) is above 5 µM.

As for `C=CC(=O)N1CC2(CC(n3nc(N4CCC5(CC4)CN(C(C)=O)CCO5)c(-c4c(Cl)c(C)cc5[nH]ncc45)c3C)C2)C1` (single isomer, unassigned) [Example 26a, 1-(6-(3-(4-acetyl-1-oxa-4,9-diazaspiro [5.5]undecan-9-yl)-4-(5-chloro-6-methyl-1H-indazol-4-yl)-5-methyl-1H-pyrazol-1-yl)-2-azaspiro[3.3]heptan-2-yl)prop-2-en-1-one], the concentration for half-maximal inhibition (IC50) was 11.5 µM.

`C=CC(=O)N1CC2(CC(n3nc(N4CCN(C5COC5)CC45CCOC5)c(-c4c(Cl)c(C)cc5[nH]ncc45)c3C)C2)C1` (stereo not shown) [Example 141a, 1-(6-(4-(5-chloro-6-methyl-1H-indazol-4-yl)-5-methyl-3-(9-(oxetan-3-yl)-2-oxa-6,9-diazaspiro[4.5]decan-6-yl)-1H-pyrazol-1-yl)-2-azaspiro[3.3]heptan-2-yl)prop-2-en-1-one]: the IC50 is above 5 µM.

As to `C=CC(=O)N1CC2(CC(n3nc(N4CCN(C(=O)C5CC5)CC4(C)C)c(-c4c(Cl)c(C)cc5[nH]ncc45)c3C)C2)C1` (single isomer, unassigned) [Example 127a, 1-(6-(4-(5-chloro-6-methyl-1H-indazol-4-yl)-3-(4-(cyclopropanecarbonyl)-2,2-dimethylpiperazin-1-yl)-5-methyl-1H-pyrazol-1-yl)-2-azaspiro[3.3]heptan-2-yl)prop-2-en-1-one], the IC50 is 25.2 µM.

Take `C=CC(=O)N1CC2(CC(n3nc(N4CC[C@@H](CN5CC6(CCN(S(C)(=O)=O)C6)C5)CC4(C)C)c(-c4c(Cl)c(Cl)cc5[nH]ncc45)c3C)C2)C1` (single isomer, unassigned) [Example 297a]: the half-inhibitory concentration (IC50) was above 5 µM.

As for `C=CC(=O)N1CC2(CC(n3nc(N4CCC(N5C[C@H]6C[C@@H]5CN6S(C)(=O)=O)CC4(C)C)c(-c4c(Cl)c(Cl)cc5[nH]ncc45)c3C)C2)C1` (single isomer, unassigned) [Example 212a], the IC50 turned out to be 0.358 µM.

`C=CC(=O)N1CC2(CC(n3nc(N4CCN(C[C@@H]5COCCO5)C[C@]4(C)CC)c(-c4c(Cl)c(C)cc5c4cnn5C)c3C)C2)C1` (single isomer, unassigned) [Example 109b]: the IC50 was above 5 µM.

In the case of `C=CC(=O)N1CC2(CC(n3nc(N4CC[C@@H](CN5CC6(C5)CS(=O)(=O)C6)CC4(C)C)c(-c4c(Cl)c(Cl)cc5[nH]ncc45)c3C)C2)C1` (single isomer, unassigned) [Example 248b], the concentration for half-maximal inhibition (IC50) was 0.009 µM.

Take `C=CC(=O)N1CC2(CC(n3nc(N4CCC(CN5CCOCC5)C4(C)C)c(-c4c(Cl)c(Cl)cc5[nH]ncc45)c3C)C2)C1` (single isomer, unassigned) [Example 218b, 1-(6-(4-(5,6-dichloro-1H-indazol-4-yl)-3-(2,2-dimethyl-3-(morpholinomethyl)pyrrolidin-1-yl)-5-methyl-1H-pyrazol-1-yl)-2-azaspiro[3.3]heptan-2-yl)prop-2-en-1-one]: the 50% inhibitory concentration (IC50) is above 5 µM.

As for `C=CC(=O)N1CC2(CC(n3nc(N4CCN(C[C@@H]5COCCO5)C[C@]4(C)CC)c(-c4c(Cl)c(Cl)cc5[nH]ncc45)c3C)C2)C1` (single isomer, unassigned) [Example 89a], the half-inhibitory concentration (IC50) amounted to 3.4 µM.

As for `C=CC(=O)N1CC2(CC(n3nc(N4CCN(Cc5cn(C)nn5)C[C@]4(C)CC)c(-c4c(Cl)c(C)cc5[nH]ncc45)c3C)C2)C1` (single isomer, unassigned) [Example 188b], the IC50 was 0.006 µM.

In the case of `C=CC(=O)N1CC2(CC(n3nc(N4CC[C@@H](CN5CCOC6(COC6)C5)CC4(C)C)c(-c4c(Cl)c(C)cc5[nH]ncc45)c3C)C2)C1` (single isomer, unassigned) [Example 299a], the IC50 was 0.793 µM.

As to `C=C(F)C(=O)N1CC2(CC(n3nc(N4CCN(C[C@@H]5COCCO5)C[C@]4(C)COC)c(-c4c(Cl)c(Cl)cc5[nH]ncc45)c3C)C2)C1` (single isomer, unassigned) [Example 184b], the 50% inhibitory concentration (IC50) stood at 0.061 µM.

As for `C=CC(=O)N1CC2(CC(n3nc(N4CC[C@@H](CN5CC6CC6(O)C5)CC4(C)C)c(-c4c(Cl)c(Cl)cc5[nH]ncc45)c3C)C2)C1` (single isomer, unassigned) [Example 257b], the IC50 stood at 0.012 µM.

Consider `C=CC(=O)N1CC2(CC(n3nc(N4CCN(C(C)(C)C(=O)OC)CC45CCC5)c(-c4c(Cl)c(C)cc5[nH]ncc45)c3C)C2)C1` (single isomer, unassigned) [Example 180b, methyl 2-(5-(1-(2-acryloyl-2-azaspiro[3.3]heptan-6-yl)-4-(5-chloro-6-methyl-1H-indazol-4-yl)-5-methyl-1H-pyrazol-3-yl)-5,8-diazaspiro[3.5]nonan-8-yl)-2-methylpropanoate], for which the IC50 came to 0.017 µM.

Consider `C=CC(=O)N1CC2(CC(n3nc(N4CCn5nccc5C4C)c(-c4c(Cl)c(C)cc5[nH]ncc45)c3C)C2)C1` (single isomer, unassigned) [Example 41a, 1-(6-(4-(5-chloro-6-methyl-1H-indazol-4-yl)-5-methyl-3-(4-methyl-6,7-dihydropyrazolo[1,5-a]pyrazin-5(4H)-yl)-1H-pyrazol-1-yl)-2-azaspiro[3.3]heptan-2-yl)prop-2-en-1-one], for which the IC50 was 41.9 µM.

With `C=CC(=O)N1CC2(CC(n3nc(N4CCC(N(C)[C@@H]5CCOC5)CC4(C)C)c(-c4c(Cl)c(C)cc5[nH]ncc45)c3C)C2)C1` (single isomer, unassigned) [Example 84b], the IC50 is 0.014 µM.

Consider `C=CC(=O)N1CC2(CC(n3nc(N4CCN(CC5COCCOC5)CC45CCC5)c(-c4c(Cl)c(C)cc5[nH]ncc45)c3C)C2)C1` (single isomer, unassigned) [Example 185b, 1-(6-(3-(8-((1,4-dioxepan-6-yl)methyl)-5,8-diazaspiro[3.5]nonan-5-yl)-4-(5-chloro-6-methyl-1H-indazol-4-yl)-5-methyl-1H-pyrazol-1-yl)-2-azaspiro[3.3]heptan-2-yl)prop-2-en-1-one], for which the IC50 amounted to 0.015 µM.

For `C=CC(=O)N1CC2(CC(n3nc(N4CCN(C(C)=O)CC4)c(-c4c(Cl)ccc5[nH]ncc45)c3C)C2)C1` (single isomer, unassigned) [Example 36b, 1-(6-(3-(4-acetylpiperazin-1-yl)-4-(5-chloro-1H-indazol-4-yl)-5-methyl-1H-pyrazol-1-yl)-2-azaspiro[3.3]heptan-2-yl)prop-2-en-1-one], the half-maximal inhibitory concentration (IC50) turned out to be 2.4 µM.

As for `C=CC(=O)N1CC2(CC(n3nc(N4CCN(c5ccnnc5)C[C@]4(C)CC)c(-c4c(Cl)c(C)cc5[nH]ncc45)c3C)C2)C1` (single isomer, unassigned) [Example 192a], the half-inhibitory concentration (IC50) was above 5 µM.

As for `C=CC(=O)N1CC2(CC(n3nc(N4CCC(n5ccnc5)CC4(C)C)c(-c4c(Cl)c(C)cc5[nH]ncc45)c3C)C2)C1` (single isomer, unassigned) [Example 44b, 1-(6-(3-(4-(1H-imidazol-1-yl)-2,2-dimethylpiperidin-1-yl)-4-(5-chloro-6-methyl-1H-indazol-4-yl)-5-methyl-1H-pyrazol-1-yl)-2-azaspiro[3.3]heptan-2-yl)prop-2-en-1-one], the IC50 came out at 0.02 µM.

For `C=CC(=O)N1CC2(CC(n3nc(N4CCN(C(=O)OCCOC)CC45CCC5)c(-c4c(Cl)c(C)cc5[nH]ncc45)c3C)C2)C1` (single isomer, unassigned) [Example 122b, 2-methoxyethyl 5-(1-(2-acryloyl-2-azaspiro[3.3]heptan-6-yl)-4-(5-chloro-6-methyl-1H-indazol-4-yl)-5-methyl-1H-pyrazol-3-yl)-5,8-diazaspiro[3.5]nonane-8-carboxylate], the IC50 stood at 0.016 µM.

On to `C=CC(=O)N1CC2(CC(n3nc(N4CCC(N(C)C(=O)COC)CC4(C)C)c(-c4c(Cl)c(C)cc5[nH]ncc45)c3C)C2)C1` (single isomer, unassigned) [Example 97b, N-(1-(1-(2-acryloyl-2-azaspiro[3.3]heptan-6-yl)-4-(5-chloro-6-methyl-1H-indazol-4-yl)-5-methyl-1H-pyrazol-3-yl)-2,2-dimethylpiperidin-4-yl)-2-methoxy-N-methylacetamide], for which the half-inhibitory concentration (IC50) amounted to 1.7 µM.

With `C=CC(=O)N1CC2(CCC(n3nc(N4CCN(C(C)=O)CC4)c(-c4c(Cl)ccc5[nH]ncc45)c3C)C2)C1` (single isomer, unassigned) [Example 53c, 1-(6-(3-(4-acetylpiperazin-1-yl)-4-(5-chloro-1H-indazol-4-yl)-5-methyl-1H-pyrazol-1-yl)-2-azaspiro[3.4]octan-2-yl)prop-2-en-1-one], the IC50 is above 50 µM.

On to `C=CC(=O)N1CC2(CC(n3nc(N4CCC(CN5CCS(=O)(=O)CC5)CC4(C)C)c(-c4c(Cl)c(Cl)cc5[nH]ncc45)c3C)C2)C1` (single isomer, unassigned) [Example 236b, 1-(6-(4-(5,6-dichloro-1H-indazol-4-yl)-3-(4-((1,1-dioxidothiomorpholino)methyl)-2,2-dimethylpiperidin-1-yl)-5-methyl-1H-pyrazol-1-yl)-2-azaspiro[3.3]heptan-2-yl)prop-2-en-1-one], for which the IC50 stood at 2.5 µM.

Consider `C=C(F)C(=O)N1CC2(CC(n3nc(N4CCN(C[C@@H]5COCCO5)C[C@]4(C)CC)c(-c4c(Cl)c(C)cc5[nH]ncc45)c3C)C2)C1` (single isomer, unassigned) [Example 174b], for which the IC50 turned out to be 0.121 µM.

For the compound `C=CC(=O)N1CC2(CC(n3nc(N4CCN(C[C@@H]5COCCO5)C[C@]4(C)CC)c(-c4c(Cl)c(C)cc5[nH]ncc45)c3C#N)C2)C1` [Example 176, 3-((S)-4-(((R)-1,4-dioxan-2-yl)methyl)-2-ethyl-2-methylpiperazin-1-yl)-1-(2-acryloyl-2-azaspiro[3.3]heptan-6-yl)-4-(5-chloro-6-methyl-1H-indazol-4-yl)-1H-pyrazole-5-carbonitrile], the half-maximal inhibitory concentration (IC50) was below 0.005 µM.
